In US20130330754A1, “SOL-GEL DERIVED SENSOR FOR RAPID DETERMINATION OF HEAVY METALS” (priority 2012, published 2013):

Assays:
[1] = target: T1, β-galactosidase (B-GAL) (Escherichia coli, UniProt P00722); assay: B-GAL inhibition by heavy metals on bioactive paper sensor (CPRG colour intensity); assay type: biochemical, E. coli; settings: for IC50 values (concentration to obtain 50% inhibition of B-GAL) / limits of detection (LODs): paper sensor, 10 min incubation with metal; for limits of detection (LODs): B-GAL/CPRG assay; for inhibition of B-GAL: single metal
T1 sequence (P00722 2-1024): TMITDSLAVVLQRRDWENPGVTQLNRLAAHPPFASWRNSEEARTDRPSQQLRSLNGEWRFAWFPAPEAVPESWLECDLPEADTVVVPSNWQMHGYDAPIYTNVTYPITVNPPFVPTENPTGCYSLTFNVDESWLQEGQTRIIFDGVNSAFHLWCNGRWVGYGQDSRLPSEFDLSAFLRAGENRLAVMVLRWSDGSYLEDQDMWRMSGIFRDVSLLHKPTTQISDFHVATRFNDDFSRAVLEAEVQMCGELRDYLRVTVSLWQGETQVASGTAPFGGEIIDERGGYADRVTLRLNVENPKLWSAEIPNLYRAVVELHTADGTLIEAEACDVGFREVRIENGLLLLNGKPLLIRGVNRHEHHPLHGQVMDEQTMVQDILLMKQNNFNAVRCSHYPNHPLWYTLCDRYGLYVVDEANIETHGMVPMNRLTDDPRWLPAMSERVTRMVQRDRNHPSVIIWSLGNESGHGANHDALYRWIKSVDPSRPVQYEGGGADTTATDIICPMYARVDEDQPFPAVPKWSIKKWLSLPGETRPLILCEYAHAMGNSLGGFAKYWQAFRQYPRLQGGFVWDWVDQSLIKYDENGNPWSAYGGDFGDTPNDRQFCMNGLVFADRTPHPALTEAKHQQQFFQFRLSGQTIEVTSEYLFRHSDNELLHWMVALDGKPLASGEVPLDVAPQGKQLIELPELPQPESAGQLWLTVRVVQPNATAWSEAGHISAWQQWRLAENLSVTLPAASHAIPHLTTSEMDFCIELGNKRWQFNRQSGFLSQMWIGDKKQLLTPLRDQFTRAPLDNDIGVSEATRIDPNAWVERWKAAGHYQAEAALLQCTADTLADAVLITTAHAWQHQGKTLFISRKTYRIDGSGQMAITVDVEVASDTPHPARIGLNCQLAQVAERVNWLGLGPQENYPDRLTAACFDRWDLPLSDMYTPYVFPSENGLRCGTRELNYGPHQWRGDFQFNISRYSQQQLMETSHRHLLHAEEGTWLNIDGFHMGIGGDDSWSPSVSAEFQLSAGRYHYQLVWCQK
Excerpt: The sensors were constructed based on an enzyme, B-GAL vs. substrate, CPRG system with three design strategies: a one-dimensional strategy and two flower shape strategies. In the one-dimensional strategy, a section of Whatman #1 paper was cut into small pieces (0.5×8 cm) on which B-GAL and CPRG were entrapped using sol-gel derived sol gel materials into two different zones (e.g., enzyme or sensing and substrate zones). To prevent leaching the color, a hydrophobic barrier was also introduced on the top (FIG. 1b) of the sensing zone(s) using either wax (by wax printer, Xerox Phaser 8560N) or methyltrimethoxysilane (MTMS) (via piezoelectric inkjet printing).
The sensing zones for all cases were incubated with a drop of contaminated sample for 10 min. The bottom of the paper sensor (FIG. 1b, c) was placed into water while a few drops of water were put at the middle of the sensor (FIG. 1d) for lateral flow chromatography. The color intensity was monitored after 5 min air drying at room temperature. The inkjet printing was done as described elsewhere.^31, 32 After printing, the sensor was allowed to dry for at least 1 h in air at room temperature.
The inhibitory effects of these metals on the solid-phase biosensor were evaluated by measuring the decrease in the color intensity produced by the enzyme-substrate reaction. The sensing region of the paper sensor was first incubated with various concentrations of heavy metals (5 μL) for 10 min after which the paper sensor was allowed for lateral flow chronographic system. The images were taken after 5-10 min air drying at room temperature.
The color intensity of the sensing areas was monitored either by the naked eye, by obtaining a digital image (Canon G11 12 MegaPixel camera operated in automatic mode with no flash and with the macroimaging setting on) or by using an office scanner, with ImageJ™ software being used to analyze the Jpeg images in the latter two cases. The numerical single color coordinates values were obtained using the ImageJ™ color split channel system. All data points represent the average of four replicate experiments and the error bars represent the standard deviations (s.d.) of those points.

[2] = target: T1, β-galactosidase (B-GAL); settings: EDTA 10 mM; Hg(II), Ag(I) ~2.7 ppm each, other metals ~8 ppm each
[3] = target: T1, β-galactosidase (B-GAL)
Method: The sensor was incubated with a 5 μL sample for 10 min (a separate paper sensor was made for each concentration) and the B-GAL inhibition tested as outlined above.

| Molecule | IC50 values (concentration to obtain 50% inhibition of B-GAL) [1] | limits of detection (LODs) [1] | inhibition of B-GAL after inclusion of EDTA [2] | effect of nontoxic metal ion on response vs. concentration of Hg^2+ and limit of detection ([3]; NaCl 10 μM, KCl 100 ppm) | inhibition of B-GAL ([1]; 0.1 μM) | limit of detection ([3]; Hg^2+ mixed with NaCl (10 μM)) | IC50 ([3]; read-out: IC50 value, Hg^2+ mixed with NaCl (10 μM)) | inhibition of B-GAL ([1]; 3 μM) |
| --- | --- | --- | --- | --- | --- | --- | --- | --- |
| [Ni+2] [Ni(II)] | 1.80 ppm | ~0.230 ppm | completely removed the inhibition | – | – | – | – | – |
| [Cl-].[Na+] [NaCl] | – | – | – | negligible effect | – | – | – | – |
| [Cl][Cd][Cl] [Cd(II), CdCl2] | 1.14 ppm | ~0.020 ppm | completely removed the inhibition | – | – | – | – | – |
| [Cl][Hg][Cl] [Hg(II), HgCl2] | 0.03 ppm | – | completely removed the inhibition | – | 42% | ~0.01 µM | 120 nM | – |
| O=S(=O)([O-])[O-].[Cu+2] [Cu(II), CuSO4] | 0.70 ppm | ~0.020 ppm | completely removed the inhibition | – | – | – | – | 23% |
| Cr(VI) | 1.49 ppm | ~0.150 ppm | retaining the inhibition | – | – | – | – | – |
| [Pb+2] [Pb(II)] | 1.40 ppm | ~0.140 ppm | completely removed the inhibition | – | – | – | – | – |
| O=[N+]([O-])[O-].[Ag+] [Ag(I), AgNO3] | 0.05 ppm | ~0.002 ppm | retaining the inhibition | – | about 35% | – | – | – |
